Results from patent US7709516B2, “Helix 12 directed non-steroidal antiandrogens” (Endorecherche, Inc., priority 2005, dated 2010).
Where two headings read alike, the source gives them in different places.

Experiments:
[1] = test system: Shionogi mouse mammary carcinoma cells; experiment: Androgenic/antiandrogenic activity: inhibition of DHT-stimulated Shionogi cell number; format: cell-based; conditions: Mus musculus, DHT-stimulated Shionogi cell number
Human Androgen Receptor = molecular target: T1, Human Androgen Receptor (Homo sapiens, UniProt P10275); experiment: Androgen receptor binding assay ([3H]R1881, HAP) in cytosol of HEK-293 cells transfected with hAR; conditions: relative to R1881 = 100, transfected cells
T1 sequence (P10275 1-920): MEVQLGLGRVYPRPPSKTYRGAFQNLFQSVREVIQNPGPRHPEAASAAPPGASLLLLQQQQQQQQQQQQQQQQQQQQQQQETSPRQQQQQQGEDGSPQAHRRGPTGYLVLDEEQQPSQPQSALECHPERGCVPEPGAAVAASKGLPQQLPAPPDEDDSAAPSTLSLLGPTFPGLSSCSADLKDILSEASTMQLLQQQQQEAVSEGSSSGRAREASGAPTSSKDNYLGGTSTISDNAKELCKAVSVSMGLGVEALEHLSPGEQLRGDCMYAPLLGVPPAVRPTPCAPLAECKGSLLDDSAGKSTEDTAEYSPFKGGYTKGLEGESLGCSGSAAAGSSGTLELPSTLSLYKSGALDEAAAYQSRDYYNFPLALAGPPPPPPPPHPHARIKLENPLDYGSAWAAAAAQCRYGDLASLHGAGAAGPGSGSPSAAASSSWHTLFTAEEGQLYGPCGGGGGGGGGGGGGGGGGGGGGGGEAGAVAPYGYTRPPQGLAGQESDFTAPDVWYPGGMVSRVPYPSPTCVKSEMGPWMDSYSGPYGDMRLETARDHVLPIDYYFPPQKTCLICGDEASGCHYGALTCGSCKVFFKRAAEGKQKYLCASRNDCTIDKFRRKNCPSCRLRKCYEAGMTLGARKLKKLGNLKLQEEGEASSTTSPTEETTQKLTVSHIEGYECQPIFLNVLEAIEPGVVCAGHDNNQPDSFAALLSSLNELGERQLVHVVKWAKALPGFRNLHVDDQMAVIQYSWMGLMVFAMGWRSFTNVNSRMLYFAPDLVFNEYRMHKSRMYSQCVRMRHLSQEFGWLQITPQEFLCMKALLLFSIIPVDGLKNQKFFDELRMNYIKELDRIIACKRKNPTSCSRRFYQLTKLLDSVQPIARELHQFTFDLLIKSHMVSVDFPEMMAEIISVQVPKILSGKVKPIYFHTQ

[2] = test system: rat prostate, seminal vesicle, levator ani muscle; experiment: Systemic antiandrogenic activity in orchidectomized immature male rats with DHT implant; format: in vivo; conditions: Rattus norvegicus, 168 h
[3] = read-out: Shionogi Antiandrogenic Activity IC50, Table 1
[4] = read-out: Lev Ani % inhibition, Table 1, rat +DHT, s.c. or p.o. (route not marked), levator ani, 0.5 mg/animal daily 7 days
[5] = read-out: Prostate % inhibition, Table 1, rat +DHT, s.c. or p.o. (route not marked in cell), 0.5 mg/animal daily 7 days
[6] = read-out: SV % inhibition, Table 1, rat +DHT, s.c. or p.o. (route not marked), seminal vesicle, 0.5 mg/animal daily 7 days

Compound | IC50 [1, 3] | Human Androgen Receptor Binding (%) RBA R1881 = 100 (Human Androgen Receptor; Table 1) | inhibition in vivo at 0.5 mg [2, 4] | inhibition in vivo at 0.5 mg [2, 5] | inhibition in vivo at 0.5 mg [2, 6] | further results
CCC(CC)NCc1ccc(OCCCN2C(=S)N(c3ccc(C#N)c(C(F)(F)F)c3)C(=O)C2(C)C)cc1 [EM-7144] | 22.5 nM | 14.0% | 41% | 45% | 61% | –
CCNCc1ccc(OCCCN2C(=S)N(c3ccc(C#N)c(C(F)(F)F)c3)C(=O)C2(C)C)cc1 [EM-7148] | 6.1 nM | 12.0% | 75% | 58% | 85% | –
CCC(=O)c1ccc(OCCCN2C(=S)N(c3ccc(C#N)c(C(F)(F)F)c3)C(=O)C2(C)C)cc1 [EM-7154] | 20 nM | 64.7% | 6% | 8% | 31% | –
CC(=O)c1ccc(OCCCN2C(=S)N(c3ccc(C#N)c(C(F)(F)F)c3)C(=O)C2(C)C)cc1 [EM-7168] | 13 nM | 49.3% | 0% | 14% | 54% | –
CC(NC1CC1)c1ccc(OCCCN2C(=S)N(c3ccc(C#N)c(C(F)(F)F)c3)C(=O)C2(C)C)cc1 (centres unmarked) [EM-7169] | 11 nM | 21.7% | 31% | 45% | 72% | –
CN(C)Cc1ccc(OCCCN2C(=S)N(c3ccc(C#N)c(C(F)(F)F)c3)C(=O)C2(C)C)cc1 [EM-7192] | 11.5 nM | 15.6% | 0% | 53% | 75% | –
CC(C)NC(=O)c1ccc(OCCCN2C(=S)N(c3ccc(C#N)c(C(F)(F)F)c3)C(=O)C2(C)C)cc1 [EM-7202] | 36.5 nM | 37.0% | 0% | 26% | 63% | –
CCC(NC(C)C)c1ccc(OCCCN2C(=S)N(c3ccc(C#N)c(C(F)(F)F)c3)C(=O)C2(C)C)cc1 (centres unmarked) [EM-7203] | 8.9 nM | 48.4% | 4% | 37% | 66% | –
CCC(C)NCc1ccc(OCCCN2C(=S)N(c3ccc(C#N)c(C(F)(F)F)c3)C(=O)C2(C)C)cc1 (centres unmarked) [EM-7225] | 12.5 nM | 15.3% | 14% | 52% | 71% | –
CCCNCc1ccc(OCCCN2C(=S)N(c3ccc(C#N)c(C(F)(F)F)c3)C(=O)C2(C)C)cc1 [EM-7227] | 10.8 nM | 18.0% | 1% | 35% | 77% | –
CC1(C)C(=O)N(c2ccc(C#N)c(C(F)(F)F)c2)C(=S)N1CCCOc1ccc(CN2CCCC2)cc1 [EM-7232, 4-{4,4-Dimethyl-5-oxo-3-[3-(4-pyrrolidin-1-ylmethyl-phenoxy)-]-2-thioxo-imidazolidin-1-yl}-2-trifluoro-benzonitrile] | 7.6 nM | 19.0% | 70% | 45% | 84% | –
CC(C)N(C)Cc1ccc(OCCCN2C(=S)N(c3ccc(C#N)c(C(F)(F)F)c3)C(=O)C2(C)C)cc1 [EM-7233] | 12 nM | 15.0% | 70% | 54% | 82% | –
CC(C)NC(C)c1ccc(OCCCN2C(=S)N(c3ccc(C#N)c(C(F)(F)F)c3)C(=O)C2(C)C)cc1 (centres unmarked) [EM-7234, 4-(3-{3-[4-(1-Isopropylamino-ethyl)-phenoxy]-propyl}-4,4-dimethyl-5-oxo-2-thioxo-imidazolidin-1-yl)-2-tifluoromethyl-benzonitile] | 6.2 nM | 30.4% | 75% | 50% | 82% | –
CCN(C)Cc1ccc(OCCCN2C(=S)N(c3ccc(C#N)c(C(F)(F)F)c3)C(=O)C2(C)C)cc1 [EM-7242] | 9.8 nM | 18.0% | 55% | 41% | 72% | –
CC(c1ccc(OCCCN2C(=S)N(c3ccc(C#N)c(C(F)(F)F)c3)C(=O)C2(C)C)cc1)N(C)C (centres unmarked) [EM-7243] | 14 nM | 14.0% | 73% | 34% | 72% | –
CC1(C)C(=O)N(c2ccc(C#N)c(C(F)(F)F)c2)C(=S)N1CCCOc1ccc(CN2CCOCC2)cc1 [EM-7248] | 19 nM | 32.4% | 44% | 37% | 62% | –
COC(=O)c1ccc(OCCCN2C(=S)N(c3ccc(C#N)c(C(F)(F)F)c3)C(=O)C2(C)C)cc1 [EM-7260] | 17 nM | 93.3% | 0% | 25% | 47% | –
Cc1cc(CNC(C)C)ccc1OCCCN1C(=S)N(c2ccc(C#N)c(C(F)(F)F)c2)C(=O)C1(C)C [EM-7297] | 6.3 nM | 59.0% | 31% | 29% | 37% | –
CN(C)Cc1ccc(OCCCN2C(=O)N(c3ccc(C#N)c(C(F)(F)F)c3)C(=O)C2(C)C)cc1 [EM-7334, 4-{3-[3-(4-Dimethylaminomethyl-phenoxy)-propyl]-4,4-dimethyl-2,5-dioxo-imidazolidin-1-yl}-2-trifluoromethyl-benzonitrile] | – | 0.5% | – | 14% | 26% | IC50 ([1]; Table 1, read-out: Shionogi Antiandrogenic Activity IC50): 118 nM
CC1(C)C(=O)N(c2ccc(C#N)c(C(F)(F)F)c2)C(=S)N1CCCOc1ccc(CN2CCC(O)C2)cc1 (centres unmarked) [EM-7365] | 6 nM | 24.0% | 19% | 22% | 43% | –
Cc1cc(CN2CCOCC2)ccc1OCCCN1C(=S)N(c2ccc(C#N)c(C(F)(F)F)c2)C(=O)C1(C)C [EM-7366] | 22 nM | 209.0% | 16% | 26% | 70% | –
CC1(C)C(=O)N(c2ccc(C#N)c(C(F)(F)F)c2)C(=S)N1CCCOc1ccc(CN2CCC(=O)C2)cc1 [EM-7371] | 15 nM | 53.0% | 21% | 16% | 48% | –
Cc1cc(CN2CCCC2)ccc1OCCC1(O)CCN(c2ccc(C#N)c(C(F)(F)F)c2)CC1 [EM-7657] | – | – | – | – | – | IC50 ([1]; read-out: Shionogi Antiandrogenic Activity IC50, Table 2): 22 nM; Human Androgen Receptor Binding (%) RBA R1881 = 100 (Human Androgen Receptor; Table 2): 3.0%; inhibition in vivo at 0.5 mg ([2]; read-out: Lev Ani % inhibition, Table 2, rat +DHT, s.c. or p.o. (route not marked), levator ani, 0.5 mg/animal daily 7 days): 55%; inhibition in vivo at 0.5 mg ([2]; read-out: Prostate % inhibition, Table 2, rat +DHT, s.c. or p.o. (route not marked), 0.5 mg/animal daily 7 days): 24%; inhibition in vivo at 0.5 mg ([2]; read-out: SV % inhibition, Table 2, rat +DHT, s.c. or p.o. (route not marked), seminal vesicle, 0.5 mg/animal daily 7 days): 41%
Cc1cc(CN2CCOCC2)ccc1OCCC1(O)CCN(c2ccc(C#N)c3ccccc23)CC1 [EM-7676] | – | – | – | – | – | IC50 ([1]; Table 2, read-out: Shionogi Antiandrogenic Activity IC50): 147 nM; Human Androgen Receptor Binding (%) RBA R1881 = 100 (Human Androgen Receptor; Table 2): 0.3%; inhibition in vivo at 0.5 mg ([2]; read-out: Lev Ani % inhibition): 0%; inhibition in vivo at 0.5 mg ([2]; read-out: Prostate % inhibition): 0%; inhibition in vivo at 0.5 mg ([2]; read-out: SV % inhibition): 3%
